≈ marks a conversion by molar mass, not a printed value. Where “and” joins values, the source holds several entries; their conditions need not be identical. Equal entries are not always repeated. Where two headings read alike, the source gives them in different places.

Here are results for two molecules from patent US20230174584A1, “Antibiotic Compounds” (priority 2019, published 2023).

Data set [1] concerns MRSA USA 300. The data set can be described thus: Resistance development serial passage assay. The class given is cell-based, Staphylococcus aureus. Conditions: MRSA serially passaged over 30 days in sub-lethal antibiotic concentrations. Here is the method: (§1) FIG. 3 illustrates the results obtained when selected compounds were assessed using a resistance development serial passage assay. A) Daily fold-increase of MIC compared to initial MIC against MRSA USA 300 grown in sub-lethal concentrations of daptomycin, compound 5 or compound 16 over 30 days. B). Daily fold-increase of MIC compared to initial MIC against VRE E155 grown in sub-lethal concentrations of daptomycin, compound 5 or compound 16 over 30 days.
(§2) From glycerol stocks, bacterial strains were cultured on blood agar plates and incubated overnight at 37° C. A single colony was grown to exponential phase (OD600=0.5) in TSB+0.002% p80 and diluted 1:100 in fresh media. In polypropylene 96-well microtiter plates, antibiotics were added in biological triplicates and serial diluted 2-fold by transfer and mixing from one well to the next to achieve a final volume of 50 μL per well. An equal volume of bacterial suspension was added to the wells and plates were incubated overnight at 37° C. […] This procedure was repeated for 30 days and the MIC was recorded daily. Cultures containing daptomycin were supplemented with 50 mg L^−1 CaCl2 and 10 mg L^−1 MgSO4. The experiment was performed in biological replicates and for each replicate the MIC was determined from the median of a minimum of triplicates.

Data set [2] is described as follows: PK in naïve mice. The data set is classed as in vivo. The conditions noted are these: mouse, 3 mg kg^−1 subcutaneous; for Cmax: read-out: C0/Cmax. Here is the method:
(§3) Mouse studies were performed using pathogen-free CD1 mice (ICR), a well characterized outbred murine strain (supplied by Charles River, Margate UK). All mice were male and weighed 11-15 gram upon arrival. and were allowed to acclimatize for at least 7 days prior to study initiation. Mice were individually housed in sterilized ventilated cages supplied with HEPA filtered sterile air and aspen chip bedding (changed a minimum of once a week). Food and water was available ad libitum. The room temperature was 22° C. 1° C., with a 60% relative humidity and a maximum background noise of 56 dB. Mice were exposed to a 12 h light/dark cycle.
Test article 5 was administered at 3 mg kg^−1 subcutaneously in naïve mice (n=3) that were not immunosuppressed or infected. Whole blood was collected from the tail vein at 5 min, 15 min, 30 min, 1 h, 2 h, 4 h and 8 h. The last sample was taken as a terminal cardiac puncture.

Data set [3] has as its system VRE E155. The data set can be described thus: Resistance development serial passage assay. The conditions noted are these: VanA-type VRE strain serially passaged over 30 days in sub-lethal antibiotic concentrations. The class given is cell-based, Enterococcus faecium. Here is the method: as §1, §2
Data set [4] has as its system MRSA USA300 strain NRS384. The data set can be described thus: Efficacy, neutropenic mouse thigh infection. Conditions: neutropenic mice, individual thighs, 23 h post treatment. The data set is classed as in vivo, Staphylococcus aureus (in CD1 mice). Here is the method:
as §3
Mice were made neutropenic by a subcutaneous injection of 150 mg kg^−1 and 100 mg kg^−1 cyclophosphamide 4 days and 1 day before infection respectively. Mice were infected in both thighs with MRSA USA300 strain NRS384 (1.47×10^6 CFU mL-1, 7.33×10^4 CFU per thigh) intramuscularly under temporary anesthesia. […] Pretreatment group was euthanized one hour after infection and the other treatment groups were euthanized […]. Weighted thighs were homogenized and cultured on MSA agar at 37° C. for 18-24 h followed by colony counting. Each group consisted of n=6 mice with both thighs infected (n=12 thighs per treatment group) and each thigh was treated as a separate sample. Data analysis was done with StatsDirect software v. 3.2.8 using non-parametric statistical models (Kruskal-Wallis using Conover-Inman to make all pairwise comparisons between groups).
Colony forming units in neutropenic mice infected in each thigh with MRSA followed 1 h later by the first subcutaneous dose of antibiotic at concentrations indicated and subsequently the same dose at indicated intervals, with sacrifice and bacterial load determination in homogenized thighs at 23 h post treatment (24 h post infection). […] Data are mean±SEM (n=12, six mice per group, two thighs per mouse).

The nature of data set [5]: Tolerability in naïve mice. Conditions: 100 mg/kg (SC), two mice. The class given is in vivo. Here is the method: as §3
Tolerability of compound 5 was assessed at 100 mg kg^−1 subcutaneous injection (in 10% DMSO in water for injection) in naïve mice (n=2) that were not immunosuppressed or infected.

The subject of data set [6] is E. faecium E155. The conditions noted are these: Enterococcus faecium E155, strain description; cited from earlier work.

Turning to `CCCCCCCNC(N)=Nc1ccc(CN[C@@]2(C)C[C@H](O[C@H]3[C@H](Oc4c5cc6cc4Oc4ccc(cc4Cl)[C@@H](O)[C@@H](NC(=O)[C@@H](CC(C)C)NC)C(=O)N[C@@H](CC(N)=O)C(=O)N[C@H]6C(=O)N[C@H]4C(=O)N[C@H](C(=O)N[C@H](C(=O)O)c6cc(O)cc(O)c6-c6cc4ccc6O)[C@H](O)c4ccc(c(Cl)c4)O5)O[C@H](CO)[C@@H](O)[C@@H]3O)O[C@@H](C)[C@H]2O)cc1` [Compound 5], the “resistance induction, fold-increase of MIC compared to initial MIC” value in data set [1] is “did not induce resistance”. In addition, in data set [2] (Mean/Median (n=3)), the AUC0-t was 3.134 µM·h, the “AUC % Extrapolation to infinity” value is 1.9%, the C0/Cmax amounted to 1813 ng/mL and the CL/CL_F was 9.30 mL/min/kg. Also, in data set [2] (Mean/Median (n=3)), the Clast was 54.6 ng/mL, the t1/2 came out at 1.22 h, the tlast is reported as 8.00 h and the tmax was determined as 1.00 h. In data set [2] (Mean/Median (n=3)), the Cmax came to 1070 nM. In addition, in data set [2] (individual samples 1-3), the AUC0-t is 3.238 µM·h and 3.368 µM·h and 2.797 µM·h; the “AUC % Extrapolation to infinity” value was 3.1% and 0.9% and 1.6%; the AUCinf was 5664 ng hr mL^−1 and 5759 ng hr mL^−1 and 4814 ng hr mL^−1 and 3342 nM hr and 3398 nM hr and 2841 nM hr; the C0/Cmax is 1989 ng/mL and 1903 ng/mL and 1546 ng/mL. For the same molecule, in data set [2] (individual samples 1-3), the CL/CL_F is 9 mL min^−1 kg^−1 (2×) and 10 mL min^−1 kg^−1; the Clast was 85.3 ng/mL and 34.4 ng/mL and 44.2 ng/mL; the t1/2 is 1.43 h and 1.05 h and 1.17 h; the tlast worked out at 8.00 h. In data set [2] (individual samples 1-3), the tmax is 1.00 h (2×) and 2.00 h; the Cmax is 1170 nM and 1120 nM and 912 nM. In data set [3], the “resistance induction, fold-increase of MIC compared to initial MIC” value was “low levels of resistance induction”. Further, in data set [4] (3 mg kg^−1 q6h subcutaneous), the Thigh burden is 113 CFU g^−1 (2×) and 368 CFU g^−1 and 456 CFU g^−1 and 9139 CFU g^−1 and 666 CFU g^−1 and 350 CFU g^−1 and 587 CFU g^−1 and 75 CFU g^−1 and 42132 CFU g^−1 and 7735 CFU g^−1 and 3885 CFU g^−1. The Thigh burden in data set [4] (10 mg kg^−1 q6h subcutaneous) was 368 CFU g^−1 and 35 CFU g^−1 and 77 CFU g^−1 and 96 CFU g^−1 and 76 CFU g^−1 and 40 CFU g^−1 and BLD (2×) and 158 CFU g^−1 and 7984 CFU g^−1 and 81 CFU g^−1 and 34 CFU g^−1. In data set [5], the “adverse effects and gross morphology” value is “No adverse effects and normal gross morphology”; the tolerability result was “well tolerated”.

Take `CN[C@H](CC(C)C)C(=O)N[C@H]1C(=O)N[C@@H](CC(N)=O)C(=O)N[C@H]2C(=O)N[C@H]3C(=O)N[C@H](C(=O)N[C@H](C(=O)O)c4cc(O)cc(O)c4-c4cc3ccc4O)[C@H](O)c3ccc(c(Cl)c3)Oc3cc2cc(c3O[C@@H]2O[C@H](CO)[C@@H](O)[C@H](O)[C@H]2O[C@H]2C[C@](C)(N)[C@H](O)[C@H](C)O2)Oc2ccc(cc2Cl)[C@H]1O` [Vancomycin, reference compound]: in data set [6], the MIC vancomycin (strain description) was 1020 µg/mL (≈ 707 µM). The Thigh burden in data set [4] (25 mg kg^−1 q12h subcutaneous) was 2023 CFU g^−1 and 1148 CFU g^−1 and 142564 CFU g^−1 and 283390 CFU g^−1 and 1204 CFU g^−1 and 310 CFU g^−1 and BLD and 6736 CFU g^−1 and 106 CFU g^−1 and 825 CFU g^−1 and 1030 CFU g^−1.
